The text below walks through data of BindingDB's records for doi:10.7270/Q2251GJ9 (The Scripps Research Institute Molecular Screening Center, 2007).

Counter-ions that a name gives are not always drawn.

Sequence of Sphingosine 1-phosphate receptor 1 (P21453 whole entry): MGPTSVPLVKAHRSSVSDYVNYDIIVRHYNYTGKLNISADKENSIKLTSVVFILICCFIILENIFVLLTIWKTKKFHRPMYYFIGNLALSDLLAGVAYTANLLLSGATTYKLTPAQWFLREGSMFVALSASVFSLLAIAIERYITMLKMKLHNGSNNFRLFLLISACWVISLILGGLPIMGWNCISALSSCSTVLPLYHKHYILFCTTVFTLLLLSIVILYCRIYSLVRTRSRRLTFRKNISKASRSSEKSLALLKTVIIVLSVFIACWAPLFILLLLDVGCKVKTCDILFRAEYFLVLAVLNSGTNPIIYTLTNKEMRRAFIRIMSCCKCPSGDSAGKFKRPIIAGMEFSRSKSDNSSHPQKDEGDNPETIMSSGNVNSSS

The first assay concerns the target Sphingosine 1-phosphate receptor 1 (Homo sapiens, UniProt P21453). As to the kind of experiment: S1P1 receptor agonists, dose response, cell-based, agonist mode, 60K MLSMR set (AID 468).
Conditions: not given
The compound `COc1ccc(/N=c2\scc(-c3ccc(S(=O)(=O)N4CCOCC4)cc3)n2CCCO)cc1` [3-[(2Z)-2-[(4-methoxyphenyl)imino]-4-[4-(morpholin-4-ylsulfonyl)phenyl]-1,3-thiazol-3(2H)-yl]propan-1-ol] came in with an EC50 of 13.2 µM. This counts as double-digit micromolar.

`COC(=O)Cc1sc(=O)[nH]c1Nc1ccccc1` [MLS000111966]: the EC50 was greater than 95 µM.

The compound `Nc1nonc1C(=O)NCCNCc1cc(Br)ccc1OCc1ccccc1F` [4-amino-N-[2-[[5-bromo-2-(2-fluorobenzyl)oxy-benzyl]amino]ethyl]furazan-3-carboxamide;hydrochloride] displayed an EC50 of 8.07 µM.

For the compound `CCCc1ccc(Oc2c[nH]nc2-c2ccc(O)c(C)c2O)cc1` [SMR000024172], the EC50 is 12.9 µM.

On to `COc1cccc(NC(=O)Nc2nnc(N3CCCCC3C)s2)c1` (stereo unspecified) [1-(3-methoxyphenyl)-3-[5-(2-methyl-1-piperidinyl)-1,3,4-thiadiazol-2-yl]urea], for which a half-maximal response (EC50) required 8.72 µM.

With `Cc1ccc(C(=O)c2cncc(Br)c2)cc1` [(5-bromanylpyridin-3-yl)-(4-methylphenyl)methanone], the EC50 is 9.76 µM.

`CC(=O)c1c(C)[nH]c(C(=O)OCCCCN2C(=O)c3ccccc3C2=O)c1C` [4-acetyl-3,5-dimethyl-1H-pyrrole-2-carboxylic acid 4-(1,3-dioxo-2-isoindolyl)butyl ester] had an EC50 of 2.04 µM.

`Oc1ccc(C2NCc3ccccc3-n3cccc32)cc1Cl` (stereo unspecified) [2-chloranyl-4-(5,6-dihydro-4H-pyrrolo[1,2-a][1,4]benzodiazepin-4-yl)phenol;hydrochloride] displayed an EC50 of 3.04 µM. This EC50 and that of the compound before are within 1.5-fold of each other.

Compound `CC(C)c1ccc2oc(-c3ccc(N)cc3)nc2c1` [4-(5-propan-2-yl-1,3-benzoxazol-2-yl)aniline] displayed an EC50 of 2.64 µM.

Take `Cc1ccc2[nH]c3c(N4CCN(Cc5ccc6c(c5)OCO6)CC4)ncnc3c2c1`: the EC50 is greater than 30 µM.

For the compound `Cc1ccc(S(=O)(=O)Nc2ccc3ncccc3c2)cc1` [4-methyl-N-(6-quinolinyl)benzenesulfonamide], the midpoint of the response, the EC50, lay at 7.8 µM.

Compound `O=C(Nc1cccc(C(F)(F)F)c1)C1CCCN1S(=O)(=O)c1cccc2cccnc12` (stereo unspecified) [1-(8-quinolinylsulfonyl)-N-[3-(trifluoromethyl)phenyl]-2-pyrrolidinecarboxamide] gave an EC50 of 4.74 µM.

Compound `CCOc1nc(C)ccc1-c1noc(-c2ccncc2)n1` [2-ethoxy-6-methyl-3-[5-(4-pyridinyl)-1,2,4-oxadiazol-3-yl]pyridine] showed an EC50 of 5.42 µM.

Regarding `COc1ccc(-n2nnnc2S(=O)(=O)CC(=O)N2CCCCC2)cc1` [2-[1-(4-methoxyphenyl)tetrazol-5-yl]sulfonyl-1-piperidin-1-ylethanone], the EC50 came to 5.25 µM.

Consider `O=C(CSc1nnc(Cc2csc(Nc3cccc(Cl)c3)n2)o1)N1CCc2ccccc21` [2-[[5-[[2-(3-chloroanilino)-1,3-thiazol-4-yl]methyl]-1,3,4-oxadiazol-2-yl]sulfanyl]-1-(2,3-dihydroindol-1-yl)ethanone], for which the EC50 is greater than 95 µM.

On to `CCCCn1ccnc1C(=O)c1cccc(S(=O)(=O)N2c3ccccc3CC2C)c1` (stereo unspecified) [(1-butyl-2-imidazolyl)-[3-[(2-methyl-2,3-dihydroindol-1-yl)sulfonyl]phenyl]methanone], for which the EC50 amounted to 9.34 µM. That is a single-digit micromolar value.

`O=S1(=O)C=C(Sc2nc3ccccc3s2)c2ccccc21` [2-[(1,1-dioxido-1-benzothien-3-yl)thio]-1,3-benzothiazole] yielded an EC50 of 7.68 µM. This EC50 and that of the compound before are within 1.5-fold of each other.

With `CCOc1ccccc1OCCCCCc1c(C)n[nH]c1C` [MLS000043342], it took 1.56 µM to reach a half-maximal effect (EC50). Against the preceding compound, the EC50 is about 4.9-fold lower.

Regarding `Clc1ccc(OCc2nnc(SCc3nc4ccccc4[nH]3)n2Cc2ccco2)cc1` [2-[[[5-[(4-chlorophenoxy)methyl]-4-(2-furanylmethyl)-1,2,4-triazol-3-yl]thio]methyl]-1H-benzimidazole], a half-maximal response (EC50) required 7.6 µM.

On to `CC1Cc2ccccc2N1c1ncnc2nc[nH]c12` (stereo unspecified) [SMR000017649], for which the response was half-maximal at 3.78 µM (EC50).

Turning to `Oc1c(Cl)cc(Cl)cc1Sc1cc(Cl)cc(Cl)c1O`, the midpoint of the response, the EC50, lay at 1.02 µM.

In turn, `COc1ccc(-c2n[nH]cc2-c2ccc3c(c2)OCCO3)c(O)c1` [(6E)-6-[4-(2,3-dihydro-1,4-benzodioxin-6-yl)-1,2-dihydropyrazol-3-ylidene]-3-methoxycyclohexa-2,4-dien-1-one] had an EC50 of 0.986 µM.

In turn, `Cc1cccc(-c2nc(CSCC(=O)N3CCN(Cc4ccc5c(c4)OCO5)CC3)c(C)o2)c1` [1-(1,3-benzodioxol-5-ylmethyl)-4-[({[5-methyl-2-(3-methylphenyl)-1,3-oxazol-4-yl]methyl}thio)acetyl]piperazine] registered an EC50 of 5.16 µM.

Turning to `O=C(Nc1ccc(Cl)cc1)N1CCC(c2nc(-c3ccc(F)cc3)no2)CC1` [4-[3-(4-Fluoro-phenyl)-[1,2,4]oxadiazol-5-yl]-piperidine-1-carboxylic acid (4-chloro-phenyl)-amide], the midpoint of the response, the EC50, lay at 5.07 µM. This EC50 and that of the compound before are within 1.5-fold of each other.

Regarding `Cc1cc(C=c2sc3nc4ccccc4n3c2=O)c(C)n1-c1ccccn1` [2-[(2,5-dimethyl-1-pyridin-2-yl-pyrrol-3-yl)methylidene]-[1,3]thiazolo[3,2-a]benzimidazol-1-one], the midpoint of the response, the EC50, lay at 0.132 µM.

`O=C(CSc1nc2ccccc2o1)Nc1ccc(N2CCOCC2)c(Cl)c1` [2-(1,3-benzoxazol-2-ylsulfanyl)-N-(3-chloranyl-4-morpholin-4-yl-phenyl)ethanamide] showed an EC50 of 1.02 µM.

With `Cc1nn(-c2nc3ccccc3s2)c(N)c1-c1ccccc1` [1-(1,3-benzothiazol-2-yl)-3-methyl-4-phenyl-1H-pyrazol-5-amine], the EC50 is 0.415 µM. Against the preceding compound, the EC50 is about 2.5-fold lower.

Compound `Nc1nonc1C(=O)NCCNCc1cc(Br)ccc1OCc1ccc(F)cc1` [4-amino-N-[2-[[5-bromo-2-(4-fluorobenzyl)oxy-benzyl]amino]ethyl]furazan-3-carboxamide;hydrochloride] came in with an EC50 of 6.9 µM.

On to `COC(=O)CS(=O)(=O)c1nnc([C@H](Cc2ccccc2)NC(=O)OC(C)(C)C)o1` [SMR000046685], for which the EC50 came out at 6.99 µM. The EC50 values of the last two compounds are within 1.5-fold of each other.

`Fc1ccccc1COc1ccc(C=Nn2cnnc2)cc1` [1-[4-[(2-fluorophenyl)methoxy]phenyl]-N-(1,2,4-triazol-4-yl)methanimine] displayed an EC50 of 4.62 µM. This EC50 lies about 1.5-fold lower than the previous one.

Regarding `CN(C)c1oc(-c2ccc(OCc3ccccc3)cc2)nc1C#N` [2-(4-benzoxyphenyl)-5-(dimethylamino)oxazole-4-carbonitrile], a half-maximal effect (EC50) was put at 3.22 µM.

`CCc1nnc(NC(=O)C2CCCCC2)s1` [MLS000104554] showed an EC50 greater than 95 µM.

Compound `CC(C)OC(=O)CSc1nc(N)c(C#N)c(-c2cccs2)c1C#N` [2-[(6-amino-3,5-dicyano-4-thiophen-2-yl-2-pyridinyl)thio]acetic acid propan-2-yl ester] returned an EC50 greater than 10 µM.

For the compound `Oc1ccc(-c2nnc(-c3ccc(O)cc3)nn2)cc1` [4,4'-(1,2,4,5-tetrazine-3,6-diyl)diphenol], the EC50 was greater than 10 µM.

Regarding `Cc1cc2nc(-c3ccc(NC(=O)C(C)C)cc3)oc2cc1C` [MLS000109473], the EC50 was determined as 3.04 µM. This counts as single-digit micromolar.

Consider `CCOC(=O)Nc1ccc2c(c1)N(C(=O)CCN(C)C)c1ccccc1S2` [MLS000038082], for which the EC50 turned out to be 33.9 µM.

For `OCC12C=CC(O1)c1c2c(O)n(-c2ccccc2-c2ccccc2)c1O` (stereo unspecified) [7-(hydroxymethyl)-2-(2-phenylphenyl)-4,7a-dihydro-3aH-octahydro-1H-4,7-epoxyisoindole-1,3-dione], a half-maximal response (EC50) required 5.47 µM.

Regarding `O=C(c1ccccc1)C(CCC(CN1CCOCC1)C(=O)c1ccccc1)CN1CCOCC1` (stereo unspecified) [2,5-bis(4-morpholinylmethyl)-1,6-diphenylhexane-1,6-dione;hydrochloride], the midpoint of the response, the EC50, lay at 4.8 µM.

Turning to `COC(=O)c1sc(NC(=O)c2ccc(OC)cc2OC)nc1C` [2-[(2,4-dimethoxybenzoyl)amino]-4-methyl-thiazole-5-carboxylic acid methyl ester], a half-maximal effect (EC50) was put at 9.63 µM.

Staying with this assay, now noted: inactive by the depositor's call.
The compound `O=c1oc2cc(Br)ccc2n1CSC1=NCCS1` [6-Bromo-3-(4,5-dihydro-thiazol-2-ylsulfanylmethyl)-3H-benzooxazol-2-one] registered an EC50 of 12.9 µM.

Take `Cc1cccc(-c2nc(C#N)c(NC3CCCCC3)o2)c1` [5-(cyclohexylamino)-2-(3-methylphenyl)-1,3-oxazole-4-carbonitrile]: a half-maximal response (EC50) required 13.4 µM.

The compound `Cn1cccc1C(=O)OCc1cc(Cl)cc2c1OCOC2` [(6-chloranyl-4H-1,3-benzodioxin-8-yl)methyl 1-methylpyrrole-2-carboxylate] returned an EC50 of 15.6 µM.

On to `O=C(OC1CCCCC1)c1ccc(NC(=O)c2ccco2)cc1` [4-(2-furoylamino)benzoic acid cyclohexyl ester], for which it took 13.4 µM to reach a half-maximal effect (EC50).

For `Cc1nc(C)c(C(=O)Nc2ccc(Oc3ccccc3)cc2)o1` [2,4-dimethyl-N-(4-phenoxyphenyl)-1,3-oxazole-5-carboxamide], the EC50 was determined as 11 µM.

`CCCC(=O)c1ccc(N2CCN(C(=O)c3ccccc3Br)CC2)c(F)c1` [1-[4-[4-(2-bromobenzoyl)piperazin-1-yl]-3-fluorophenyl]butan-1-one] showed an EC50 of 11.9 µM.

With `Cc1cc(C)n(-c2nc3ccccc3c(=O)n2OCCOc2ccccc2)n1` [2-(3,5-dimethyl-1-pyrazolyl)-3-(2-phenoxyethoxy)-4-quinazolinone], a half-maximal effect (EC50) was put at 20 µM.

Compound `CCN(CC)C(=O)C1CCN(S(=O)(=O)c2ccc3oc4ccccc4c3c2)CC1` [1-(2-dibenzofuranylsulfonyl)-N,N-diethyl-4-piperidinecarboxamide] gave an EC50 of 31.7 µM.

With `CC1=C(/C=C/C(C)=C/C=C/C(C)=C/C(=O)O)C(C)(C)CCC1` [ALL-TRANS-RETINOIC ACID], the EC50 is 25.4 µM.

Compound `CC(C)Cn1c(=O)c(C(=O)Nc2ccccc2S(N)(=O)=O)c(O)c2ccccc21` [1-(2-methylpropyl)-2-oxidanyl-4-oxidanylidene-N-(2-sulfamoylphenyl)quinoline-3-carboxamide] showed an EC50 of 13.4 µM.

`CCOc1ccccc1COC(=O)c1cccc(-n2cnnn2)c1` [(2-ethoxyphenyl)methyl 3-(1,2,3,4-tetrazol-1-yl)benzoate]: the EC50 stood at 22.9 µM.

For the compound `CC(C)[C@H](NC(=O)OC(C)(C)C)c1nnc(SCC(=O)Nc2ccc(Br)cc2)o1` [MLS000040800], the EC50 stood at 14.7 µM. Compared with the last compound, the EC50 is about 1.6-fold lower.

As a reminder, the EC50 is the concentration giving half of the maximal effect.
